Laboratory results: US20090172831A1, “Methods for the production of plants resistant to HPPD herbicides” (Syngenta Limited, priority 2000, published 2009)
Like-named read-outs stand apart in the source and are kept apart here.

Assays:
Arabidopsis HPPD [1] = biological target: T1, Arabidopsis HPPD (Arabidopsis thaliana, UniProt P93836); assay: Dissociation of enzyme/inhibitor complexes by exchange with 14C-labelled inhibitor (koff; Kd = koff/kon); assay type: binding; settings: for koff: − glycerol
T1 construct: made in house; host or cells: E. coli BL21 (DE3) codon+ RP
T1 sequence (P93836 1-445): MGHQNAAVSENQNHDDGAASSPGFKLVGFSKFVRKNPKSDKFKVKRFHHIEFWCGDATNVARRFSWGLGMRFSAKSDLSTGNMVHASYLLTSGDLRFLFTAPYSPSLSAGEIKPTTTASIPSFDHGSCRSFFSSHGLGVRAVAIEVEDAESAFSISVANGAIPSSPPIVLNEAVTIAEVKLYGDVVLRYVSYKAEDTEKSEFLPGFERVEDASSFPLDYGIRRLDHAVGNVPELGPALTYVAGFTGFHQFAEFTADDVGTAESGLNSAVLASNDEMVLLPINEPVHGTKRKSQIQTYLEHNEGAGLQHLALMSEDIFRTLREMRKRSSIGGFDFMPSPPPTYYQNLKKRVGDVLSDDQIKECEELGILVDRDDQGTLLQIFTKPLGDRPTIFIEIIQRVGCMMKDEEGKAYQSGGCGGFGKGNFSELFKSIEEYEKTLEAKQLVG
Method: It will be appreciated that many suitable methods known in the art for determining such low koff values are suitable for working the current invention. These include measuring rates of exchange of radio or otherwise labelled inhibitors either with or away from the enzyme inhibitor complex. For example enzyme inhibitor complexes can readily be prepared by incubating HPPD preparations with labelled or unlabelled inhibitor and then, after suitable periods, optionally rapidly separating the thus formed enzyme inhibitor complex from excess inhibitor by any suitable method such as ultrafiltration, binding to filters or exchange down a gel filtration column. Exchange reactions with the, thus prepared enzyme inhibitor complex is then initiated by addition of, as appropriate, excess labelled or unlabelled inhibitor. […] Many methods such as radiometric, fluorimetric, NMR, fluorescence depolarisation, EPR, Mossbauer, UV/VIS spectrophotometry etc. or phonon resonance can, in principle, be used to monitor the enzyme/ligand exchange reactions and, particularly in this case where the enzyme contains an iron atom at the ligand binding site. Optionally, the monitoring method may be continuous (as, for example, with scintillation proximity/bead-based methods) or, discontinuous, based upon collection of data at various timepoints wherein samples are removed and the bound and unbound label components rapidly separated and quantitated.
(§1) Values of koff can suitably be calculated by computer fitting based upon is numerical integration of the exchange data along with information on the active-site concentration of HPPD and upon kon values obtained as described below. […] In any event, koff values are always here calculated from the rate of the major slow exchange reaction.
^14C mesotrione is of specific activity 1.12 GBq/mmol. […] Following this initial binding reaction, exchange reactions are initiated by addition of cold mesotrione to a final concentration of 60 μM and 200 μl aliquots removed at various times to rapid chromatography down a NAP5 gel filtration column equilibrated in 50 mM BTP at pH 7 containing 0.1 M KCl, separation into fractions containing protein-bound or free radiolabel and liquid scintillation counting.
Nevertheless, here, for practical purposes, koff values are always here calculated from the rate of the major slow exchange reaction.
Not all test inhibitors are readily available in a radiolabelled form.

Wheat HPPD = Wheat HPPD (Triticum aestivum, UniProt A0A3B6NLC6); assay: as above; assay type: binding; settings: for koff: − glycerol
Chain of Wheat HPPD (A0A3B6NLC6 entry or part of it): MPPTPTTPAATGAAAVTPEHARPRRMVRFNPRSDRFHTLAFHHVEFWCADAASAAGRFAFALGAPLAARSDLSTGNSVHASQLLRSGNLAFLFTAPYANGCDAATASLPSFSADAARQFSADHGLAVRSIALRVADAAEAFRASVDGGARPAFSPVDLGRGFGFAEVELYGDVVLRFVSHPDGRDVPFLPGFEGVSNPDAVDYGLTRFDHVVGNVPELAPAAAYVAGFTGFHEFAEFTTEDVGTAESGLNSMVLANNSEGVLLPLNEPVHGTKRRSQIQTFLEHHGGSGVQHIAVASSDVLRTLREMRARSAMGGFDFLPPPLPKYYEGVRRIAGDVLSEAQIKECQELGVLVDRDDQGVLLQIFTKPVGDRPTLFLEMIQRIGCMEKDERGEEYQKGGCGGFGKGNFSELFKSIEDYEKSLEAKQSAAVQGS
From the text: (§2) Herbicidal inhibitors of HPPD are found here to have generally low values of koff (in the range less than 0.0003 s^−1, often less than 0.000001 s^−1). It will be appreciated that many suitable methods known in the art for determining such low koff values are suitable for working the current invention. These include measuring rates of exchange of radio or otherwise labelled inhibitors either with or away from the enzyme inhibitor complex. For example enzyme inhibitor complexes can readily be prepared by incubating HPPD preparations with labelled or unlabelled inhibitor and then, after suitable periods, optionally rapidly separating the thus formed enzyme inhibitor complex from excess inhibitor by any suitable method such as ultrafiltration, binding to filters or exchange down a gel filtration column. Exchange reactions with the, thus prepared enzyme inhibitor complex is then initiated by addition of, as appropriate, excess labelled or unlabelled inhibitor. HPPD preparations suitable for use in the methods of the current invention are relatively unpurified, buffer-exchanged, supernatant fractions of spun crude lysates of E. coli strains engineered to express the HPPD enzyme of interest at a level of, typically, about 0.25-10% of the total soluble protein. Many methods such as radiometric, fluorimetric, NMR, fluorescence depolarisation, EPR, Mossbauer, UV/VIS spectrophotometry etc. or phonon resonance can, in principle, be used to monitor the enzyme/ligand exchange reactions and, particularly in this case where the enzyme contains an iron atom at the ligand binding site. Optionally, the monitoring method may be continuous (as, for example, with scintillation proximity/bead-based methods) or, discontinuous, based upon collection of data at various timepoints wherein samples are removed and the bound and unbound label components rapidly separated and quantitated.
as §1, with “reaction. It will be appreciated that within the scope of the current invention many methods of making the desired kinetic comparisons are possible without explicit or rigorous determination of off rates but, based upon the same underlying principle, will achieve the same selection result.” for “reaction.”
The dissociation rates (off rates) of inhibitors selected from Formula 1 and/or 2 and/or 3 and/or 4 from the complexes that they form with test and control HPPD enzymes are suitably measured in a number of ways. Thus, for example, the rates of dissociation of mesotrione, a compound selected from Formula 1 and of the diketonitrile of isoxaflutole, a compound selected from Formula 3 from their respective complexes with, test, wheat HPPD and with, control, Arabidopsis HPPD are compared. The method and results from a typical test are as follows.
^14C mesotrione is of specific activity 1.12 GBq/mmol. This is ˜95% pure radiochemically by TLC and based upon the proportion of material tight-binding to HPPD. Arabidopsis and, (test), wheat HPPD are each diluted to a concentration of ˜0.45 and 0.54 μM, respectively into 1.6 ml of 50 mM Bis-Tris propane buffer at pH 7.0 containing 25% glycerol, 25 mM sodium ascorbate and 3 mg/l of bovine catalase (Sigma C3155˜50,000 units/mg) containing […] ^14C mesotrione and left to react at 25 C for 2.5-3 h. Following this initial binding reaction, exchange reactions are initiated by addition of cold mesotrione to a final concentration of 60 μM and 200 μl aliquots removed at various times to rapid chromatography down a NAP5 gel filtration column equilibrated in 50 mM BTP at pH 7 containing 0.1 M KCl, separation into fractions containing protein-bound or free radiolabel and liquid scintillation counting. […]

P. fluorescens HPPD = P. fluorescens HPPD (Pseudomonas fluorescens, UniProt A0ACG8AE61); assay: as above; assay type: binding
Chain of P. fluorescens HPPD (A0ACG8AE61 entry or part of it): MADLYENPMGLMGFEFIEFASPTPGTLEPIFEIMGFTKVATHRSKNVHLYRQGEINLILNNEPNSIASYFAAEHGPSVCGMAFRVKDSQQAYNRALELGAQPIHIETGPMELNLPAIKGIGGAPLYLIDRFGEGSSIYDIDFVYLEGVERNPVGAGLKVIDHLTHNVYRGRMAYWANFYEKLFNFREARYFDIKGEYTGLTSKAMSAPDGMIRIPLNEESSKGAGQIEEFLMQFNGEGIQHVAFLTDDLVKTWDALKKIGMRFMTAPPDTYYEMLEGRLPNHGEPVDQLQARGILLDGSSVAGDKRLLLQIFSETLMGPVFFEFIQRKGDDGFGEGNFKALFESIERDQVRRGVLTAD
From the text: as §2
as §1, with “reaction. It will be appreciated that within the scope of the current invention many methods of making the desired kinetic comparisons are possible without explicit or rigorous determination of off rates but, based upon the same underlying principle, will achieve the same selection result. […]” for “reaction.”
Not all test inhibitors are readily available in a radiolabelled form. A more general method of measuring off rates is to first form the complex with unlabelled test inhibitor, to rapidly exchange the complex free of excess unlabelled inhibitor and to then start the exchange reaction by addition of an excess of a standard labelled inhibitor, the kinetic properties of which are already known. The reaction is then monitored and the relative proportions of bound and unbound label determined at various times. […] The latter is the method of choice when the rate of exchange is fast (t½<3 h).
In, variants of the above methods, off rates are measured either in the presence or absence of ˜25% v/v glycerol. In the presence of glycerol values obtained are generally ˜1.5-3× slower than in its absence although sometimes the change is outside this range or, even, in the other direction. Further examples of data obtained are depicted in the following Table 3.
Crude Extracts of recombinant E. coli strains expressing, in the one case, a control HPPD (from Arabidopsis) and, in the other, one or more test HPPD sequences are prepared as described in the preceding example. The titre of active sites and enzyme activity are also defined and measured as described in the preceding examples. […]

Arabidopsis HPPD [2] = biological target: T1, Arabidopsis HPPD; assay: Inhibition of HPPD (E. coli extract) after pre-incubation with inhibitor; assay type: biochemical; settings: read-out: inhibition (relative to controls)
Method: (§3) Qualitative measurements of the differences in Kd values in respect of different HPPD inhibitors are obtained by pre-incubating enzyme with inhibitor and, then, subsequently, measuring the % inhibition. For example HPPD is isolated from maize seedlings, part purified and assayed by similar methods to those described by Schulz et al 1993 (FEBS LETS. 318, 162-166) and by Secor (1994) in Plant Physiol. 106, 1429-1433. Assays are run for 30 minutes and started with addition of radiolabelled hydroxyphenylpyruvate (final concentration ˜0.1-0.2 mM) following a 20-30 min period over which inhibitor is pre-incubated with the part-purified enzyme.
Using the same assay method but using HPPD from Arabidopis (obtained from E. coli cells transformed to express the Arabidopsis HPPD and prepared as an E. coli extract similar to the methods described by Garcia et al in Plant Physiol (1999) 119, 1507-1516) the following levels of inhibition (relative to controls) are observed with the following doses of herbicide versus Arabidopsis HPPD.

maize HPPD = assay: Inhibition of part purified HPPD after pre-incubation with inhibitor; assay type: biochemical
Method: as §3
The following levels of inhibition (relative to controls) are observed with the following doses of herbicide versus maize HPPD

[3] = value obtained + glycerol (in parentheses), read-out: Kd
[4] = without glycerol, Kd = koff/kon, read-out: Kd
[5] = Kd, without glycerol, Kd = koff/kon

CCOCc1nc(C(F)(F)F)ccc1C(=O)C1C(=O)C2CCC(C2)C1=O (stereo not shown) [Structure III, 3-[[2-(ethoxymethyl)-6-(trifluoromethyl)-3-pyridinyl]carbonyl]-bicyclo[3.2.1]-octane-2,4-dione]
koff (Arabidopsis HPPD [1]): 1.1e-05 s⁻¹
koff (Wheat HPPD; read-out: koff): > 0.0002 s⁻¹

CS(=O)(=O)c1cc(C(F)(F)F)ccc1C(=O)C(C#N)C(=O)C1CC1 (stereo not shown) [Structure IV, 1-[2-(methanesulfonyl)-4-(trifluoromethyl)phenyl]-3-cyclopropyl-2-cyano-propane-1,3-dione, reference compound]
Kd (Wheat HPPD; [3]): 0.596 nM
Kd (Wheat HPPD; [4]): 0.885 nM
Kd (P. fluorescens HPPD; in water at pH 7.0 and at 25 C, read-out: dissociation constant (Kd)): 12.2 nM
Kd (P. fluorescens HPPD; [3]): 1.1 nM
Kd (P. fluorescens HPPD; [4]): 12.2 nM
inhibition at 0.001 µM (Arabidopsis HPPD [2]; 1 nM): 20%
inhibition at 0.01 µM (Arabidopsis HPPD [2]; 10 nM): 90%
inhibition at 0.1 µM (Arabidopsis HPPD [2]; 100 nM): 95%
inhibition at 1 µM (Arabidopsis HPPD [2]; 1000 nM): 95%

Cc1cc(C#N)ccc1C(=O)C1C(=O)C(C)(C)C(=O)C(C)(C)C1=O [Structure VI, 2-[2-methyl-4-cyanobenzoyl]-4,4,6,6-tetramethylcyclohexane-1,3,5-trione]
Kd (Arabidopsis HPPD [1]): 0.025 nM
Kd (Wheat HPPD; [5]): 0.45 nM
Kd (P. fluorescens HPPD; [4]): > 20 nM

Cc1nc(C(F)(F)F)ccc1C(=O)C1C(=O)C(C)(C)C(=O)C(C)(C)C1=O [Structure VII, 3-[[2-methyl-6-(trifluoromethyl)-3-pyridinyl]carbonyl]-4,4,6,6-tetramethylcyclohexane-1,3,5-trione]
Kd (Arabidopsis HPPD [1]): 0.032 nM
koff (Arabidopsis HPPD [1]): 1e-06 s⁻¹
Kd (Wheat HPPD; [5]): 0.175 nM
koff (Wheat HPPD): 8.3e-06 s⁻¹
koff (P. fluorescens HPPD; − glycerol): > 0.0003 s⁻¹

CCC1CC(=O)C(C(=O)C2CC2)C(=O)C1(C)S(C)(=O)=O (stereo not shown) [Structure VIII, 2-[cyclopropylcarbonyl]-5-ethyl-4-methanesulfonyl-4-methylcyclohexane-1,3-dione]
strength of inhibition (Arabidopsis HPPD [1]; used for pre-incubation in control experiments): weak inhibitor

CS(=O)(=O)c1ccc(C(=O)C2C(=O)CCCC2=O)c(Cl)c1 [sulcotrione, 2-(2-Chloro-4-methanesulphonylbenzoyl)-cyclohexane-1,3-dione]
fold less active against the maize enzyme than structure IV (maize HPPD): ~100 fold
inhibition (relative to controls) (maize HPPD; 10 nM): 8%
inhibition (relative to controls) (maize HPPD; 100 nM): 51%
inhibition (relative to controls) (maize HPPD; 1000 nM): 83%
inhibition at 0.001 µM (Arabidopsis HPPD [2]): 57%
inhibition at 0.01 µM (Arabidopsis HPPD [2]): 96%
inhibition at 0.1 µM (Arabidopsis HPPD [2]): 100%
inhibition at 1 µM (Arabidopsis HPPD [2]): 100%
